The record followed here is article PMC8550792, “Evolution of kinase polypharmacology across HSP90 drug discovery” (Cell Chemical Biology, 2021).

What all share (assay): biochemical
What all share (assay type): biochemical

Assay [1] deals with T1, 382 unique human kinases (Homo sapiens, UniProt P23443).
T1 construct: purchased Reaction Biology (HotSpot contract assay)
The settings on record: kinase p70S6K/RPS6KB1, compound 10 uM; for remaining activity at 10 µM: read-out: % Enzyme Activity (relative to DMSO controls).

The target of assay [2] is T2, 382 unique human kinases (Homo sapiens, UniProt Q8TD19).
T2 construct: purchased Reaction Biology (HotSpot contract assay)
T2 sequence (Q8TD19 1-979): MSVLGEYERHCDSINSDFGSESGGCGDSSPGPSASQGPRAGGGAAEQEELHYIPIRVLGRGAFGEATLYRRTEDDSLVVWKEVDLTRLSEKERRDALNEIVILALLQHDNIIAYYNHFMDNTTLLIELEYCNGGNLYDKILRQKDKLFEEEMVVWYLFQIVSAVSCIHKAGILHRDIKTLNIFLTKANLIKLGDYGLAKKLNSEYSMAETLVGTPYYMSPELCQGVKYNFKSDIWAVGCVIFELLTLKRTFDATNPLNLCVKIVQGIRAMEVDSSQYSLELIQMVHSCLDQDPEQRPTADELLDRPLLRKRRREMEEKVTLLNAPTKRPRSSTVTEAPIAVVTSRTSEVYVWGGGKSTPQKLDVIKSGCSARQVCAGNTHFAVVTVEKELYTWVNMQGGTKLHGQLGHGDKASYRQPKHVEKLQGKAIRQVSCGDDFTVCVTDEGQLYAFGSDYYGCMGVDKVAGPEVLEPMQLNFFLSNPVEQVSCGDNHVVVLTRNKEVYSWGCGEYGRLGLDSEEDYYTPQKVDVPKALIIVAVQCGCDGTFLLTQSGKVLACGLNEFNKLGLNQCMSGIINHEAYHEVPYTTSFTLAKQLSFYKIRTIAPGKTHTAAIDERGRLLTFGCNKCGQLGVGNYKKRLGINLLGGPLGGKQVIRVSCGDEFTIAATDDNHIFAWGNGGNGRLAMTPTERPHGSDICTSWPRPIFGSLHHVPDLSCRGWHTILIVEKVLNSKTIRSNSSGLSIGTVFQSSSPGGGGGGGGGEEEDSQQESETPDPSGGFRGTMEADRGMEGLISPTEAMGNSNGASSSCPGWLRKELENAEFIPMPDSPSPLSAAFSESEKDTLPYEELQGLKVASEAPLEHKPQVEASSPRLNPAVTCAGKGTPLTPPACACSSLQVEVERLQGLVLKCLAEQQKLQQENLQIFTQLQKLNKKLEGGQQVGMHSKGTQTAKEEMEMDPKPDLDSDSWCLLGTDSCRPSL
The note with it: NEK9, 10 uM; for remaining activity at 10 µM: read-out: % Enzyme Activity (relative to DMSO controls).

Assay [3] addresses T3, 382 unique human kinases (Homo sapiens, UniProt P53778).
T3 construct: purchased Reaction Biology (HotSpot contract assay)
T3 sequence (P53778 1-367): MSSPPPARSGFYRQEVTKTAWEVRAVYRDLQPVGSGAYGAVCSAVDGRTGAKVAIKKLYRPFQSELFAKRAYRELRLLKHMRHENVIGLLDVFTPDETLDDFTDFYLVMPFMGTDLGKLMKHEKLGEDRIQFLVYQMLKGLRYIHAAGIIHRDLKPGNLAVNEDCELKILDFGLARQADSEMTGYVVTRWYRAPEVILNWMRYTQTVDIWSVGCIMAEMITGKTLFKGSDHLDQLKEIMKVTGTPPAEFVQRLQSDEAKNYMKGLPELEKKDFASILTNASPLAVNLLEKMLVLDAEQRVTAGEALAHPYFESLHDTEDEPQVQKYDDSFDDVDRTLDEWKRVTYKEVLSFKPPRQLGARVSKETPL
The settings on record: P38g, compound at 10 uM, duplicate values; for remaining activity at 10 µM: read-out: % Enzyme Activity (relative to DMSO controls).

Assay [4] concerns the target T4, 382 unique human kinases (Homo sapiens, UniProt O60674, V617F).
T4 construct: purchased Reaction Biology (HotSpot contract assay)
The note with it: kinase JAK2 (V617F), compound 10 uM; for remaining activity at 10 µM: read-out: % Enzyme Activity (relative to DMSO controls).

The target in assay [5] is T5, 382 unique human kinases (Homo sapiens, UniProt P06241, Y531F).
T5 construct: purchased Reaction Biology (HotSpot contract assay)
T5 sequence (P06241 whole entry Y531F): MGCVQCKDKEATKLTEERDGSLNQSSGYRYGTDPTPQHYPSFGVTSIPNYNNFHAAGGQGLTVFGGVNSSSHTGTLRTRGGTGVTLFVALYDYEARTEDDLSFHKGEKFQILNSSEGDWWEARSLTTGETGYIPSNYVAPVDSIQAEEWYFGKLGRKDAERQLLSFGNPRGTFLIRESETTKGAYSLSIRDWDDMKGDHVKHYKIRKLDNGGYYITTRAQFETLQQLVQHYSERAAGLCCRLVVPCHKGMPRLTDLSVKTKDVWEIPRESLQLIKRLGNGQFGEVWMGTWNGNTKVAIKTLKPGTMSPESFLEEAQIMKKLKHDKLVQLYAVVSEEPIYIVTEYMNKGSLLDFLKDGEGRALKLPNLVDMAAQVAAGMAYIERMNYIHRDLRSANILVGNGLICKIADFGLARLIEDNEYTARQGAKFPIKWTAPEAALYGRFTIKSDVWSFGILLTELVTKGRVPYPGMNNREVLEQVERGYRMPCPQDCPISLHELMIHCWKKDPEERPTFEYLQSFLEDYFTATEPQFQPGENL
The note with it: FYN (Y531F), [ATP] 5 µM, compound 10 uM; for remaining activity at 10 µM: read-out: % Enzyme Activity (relative to DMSO controls).

Assay [6] has as its target T6, 382 unique human kinases (Homo sapiens, UniProt P08581, M1250T).
T6 construct: purchased Reaction Biology (HotSpot contract assay)
The note with it: c-MET (M1250T), 10 uM; for remaining activity at 10 µM: read-out: % Enzyme Activity (relative to DMSO controls).

The target in assay [7] is T7, 382 unique human kinases (Homo sapiens, UniProt P21709).
T7 construct: purchased Reaction Biology (HotSpot contract assay)
T7 sequence (P21709 26-976): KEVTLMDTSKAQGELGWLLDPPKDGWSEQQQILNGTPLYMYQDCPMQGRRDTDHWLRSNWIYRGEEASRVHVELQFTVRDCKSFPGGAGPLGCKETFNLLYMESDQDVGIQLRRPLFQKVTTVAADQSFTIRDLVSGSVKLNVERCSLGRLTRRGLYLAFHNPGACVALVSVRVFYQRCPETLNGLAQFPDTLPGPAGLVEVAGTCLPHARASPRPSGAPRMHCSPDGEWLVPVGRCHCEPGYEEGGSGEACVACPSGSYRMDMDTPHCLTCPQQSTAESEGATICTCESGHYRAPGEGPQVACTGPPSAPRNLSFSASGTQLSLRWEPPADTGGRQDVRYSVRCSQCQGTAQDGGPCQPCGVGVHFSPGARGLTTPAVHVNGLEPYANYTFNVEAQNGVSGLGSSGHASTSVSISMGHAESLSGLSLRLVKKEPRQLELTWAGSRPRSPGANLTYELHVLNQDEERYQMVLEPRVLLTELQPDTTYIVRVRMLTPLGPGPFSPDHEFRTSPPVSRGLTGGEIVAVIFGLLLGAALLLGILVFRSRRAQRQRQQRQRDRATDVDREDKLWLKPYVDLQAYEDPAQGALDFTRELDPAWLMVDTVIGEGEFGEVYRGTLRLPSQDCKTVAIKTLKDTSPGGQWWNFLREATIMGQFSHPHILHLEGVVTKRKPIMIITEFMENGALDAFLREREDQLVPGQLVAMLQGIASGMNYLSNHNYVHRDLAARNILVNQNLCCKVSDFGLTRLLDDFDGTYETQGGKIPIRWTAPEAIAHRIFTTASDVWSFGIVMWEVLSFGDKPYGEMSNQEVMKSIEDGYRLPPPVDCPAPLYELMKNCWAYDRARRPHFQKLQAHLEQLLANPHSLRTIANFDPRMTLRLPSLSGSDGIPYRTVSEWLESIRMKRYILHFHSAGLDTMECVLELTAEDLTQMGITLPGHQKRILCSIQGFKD
The note with it: EPHA1, [ATP] 20 µM, compound 10 uM; for remaining activity at 10 µM: read-out: % Enzyme Activity (relative to DMSO controls).

In assay [8] the target is T8, 382 unique human kinases (Homo sapiens, UniProt Q9P1W9).
T8 construct: purchased Reaction Biology (HotSpot contract assay)
T8 sequence (Q9P1W9 whole entry): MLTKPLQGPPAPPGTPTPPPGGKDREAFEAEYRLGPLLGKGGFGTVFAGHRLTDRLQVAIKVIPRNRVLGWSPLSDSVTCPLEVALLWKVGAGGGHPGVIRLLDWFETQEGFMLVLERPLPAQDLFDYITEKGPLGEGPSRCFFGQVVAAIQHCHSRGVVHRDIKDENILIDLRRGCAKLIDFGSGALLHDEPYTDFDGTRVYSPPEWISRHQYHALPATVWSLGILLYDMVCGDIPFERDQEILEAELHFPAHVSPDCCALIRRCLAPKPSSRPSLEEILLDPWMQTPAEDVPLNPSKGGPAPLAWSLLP
The note with it: PIM2, [ATP] 20 µM, compound 10 uM; for remaining activity at 10 µM: read-out: % Enzyme Activity (relative to DMSO controls).

The target in assay [9] is T9, 382 unique human kinases (Homo sapiens, UniProt P11362, V561M).
T9 construct: purchased Reaction Biology (HotSpot contract assay)
T9 sequence (P11362 22-822 V561M): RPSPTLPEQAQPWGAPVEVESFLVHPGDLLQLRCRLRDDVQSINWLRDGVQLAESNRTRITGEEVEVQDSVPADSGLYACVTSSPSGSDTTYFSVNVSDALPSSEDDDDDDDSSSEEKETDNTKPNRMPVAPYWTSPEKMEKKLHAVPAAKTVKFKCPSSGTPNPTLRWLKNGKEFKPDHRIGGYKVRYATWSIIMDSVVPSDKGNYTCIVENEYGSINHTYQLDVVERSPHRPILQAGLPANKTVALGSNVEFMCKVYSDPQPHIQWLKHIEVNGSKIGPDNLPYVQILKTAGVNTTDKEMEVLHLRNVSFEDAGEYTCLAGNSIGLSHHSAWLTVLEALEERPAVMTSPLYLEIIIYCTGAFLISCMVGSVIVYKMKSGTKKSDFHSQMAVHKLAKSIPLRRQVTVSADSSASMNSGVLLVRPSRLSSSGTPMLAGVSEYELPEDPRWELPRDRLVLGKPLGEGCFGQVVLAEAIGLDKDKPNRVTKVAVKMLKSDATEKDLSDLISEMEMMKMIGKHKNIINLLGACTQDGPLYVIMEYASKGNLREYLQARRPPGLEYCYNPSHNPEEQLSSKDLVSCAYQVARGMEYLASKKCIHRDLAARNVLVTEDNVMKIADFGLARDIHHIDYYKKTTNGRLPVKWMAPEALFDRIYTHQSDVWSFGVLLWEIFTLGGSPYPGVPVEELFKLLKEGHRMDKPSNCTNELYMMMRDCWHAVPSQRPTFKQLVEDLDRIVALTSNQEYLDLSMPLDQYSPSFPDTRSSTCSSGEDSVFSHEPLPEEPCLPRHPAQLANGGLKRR
The note with it: FGFR1 (V561M), 10 uM; for remaining activity at 10 µM: read-out: % Enzyme Activity (relative to DMSO controls).

T1 sequence (P23443 whole entry): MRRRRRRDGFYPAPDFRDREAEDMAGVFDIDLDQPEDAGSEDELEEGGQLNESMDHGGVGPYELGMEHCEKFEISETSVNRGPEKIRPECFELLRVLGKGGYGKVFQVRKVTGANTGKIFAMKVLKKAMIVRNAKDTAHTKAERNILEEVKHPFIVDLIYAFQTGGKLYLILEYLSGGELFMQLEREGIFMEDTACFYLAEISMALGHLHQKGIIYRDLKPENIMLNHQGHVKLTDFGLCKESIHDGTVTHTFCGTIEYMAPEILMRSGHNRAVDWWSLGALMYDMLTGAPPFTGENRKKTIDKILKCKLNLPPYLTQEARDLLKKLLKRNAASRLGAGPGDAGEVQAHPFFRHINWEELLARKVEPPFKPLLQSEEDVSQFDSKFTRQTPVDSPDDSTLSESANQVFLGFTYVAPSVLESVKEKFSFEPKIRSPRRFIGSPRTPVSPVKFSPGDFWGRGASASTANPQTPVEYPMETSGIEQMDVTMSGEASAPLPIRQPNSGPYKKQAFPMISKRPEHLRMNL
T4 sequence (O60674 whole entry V617F): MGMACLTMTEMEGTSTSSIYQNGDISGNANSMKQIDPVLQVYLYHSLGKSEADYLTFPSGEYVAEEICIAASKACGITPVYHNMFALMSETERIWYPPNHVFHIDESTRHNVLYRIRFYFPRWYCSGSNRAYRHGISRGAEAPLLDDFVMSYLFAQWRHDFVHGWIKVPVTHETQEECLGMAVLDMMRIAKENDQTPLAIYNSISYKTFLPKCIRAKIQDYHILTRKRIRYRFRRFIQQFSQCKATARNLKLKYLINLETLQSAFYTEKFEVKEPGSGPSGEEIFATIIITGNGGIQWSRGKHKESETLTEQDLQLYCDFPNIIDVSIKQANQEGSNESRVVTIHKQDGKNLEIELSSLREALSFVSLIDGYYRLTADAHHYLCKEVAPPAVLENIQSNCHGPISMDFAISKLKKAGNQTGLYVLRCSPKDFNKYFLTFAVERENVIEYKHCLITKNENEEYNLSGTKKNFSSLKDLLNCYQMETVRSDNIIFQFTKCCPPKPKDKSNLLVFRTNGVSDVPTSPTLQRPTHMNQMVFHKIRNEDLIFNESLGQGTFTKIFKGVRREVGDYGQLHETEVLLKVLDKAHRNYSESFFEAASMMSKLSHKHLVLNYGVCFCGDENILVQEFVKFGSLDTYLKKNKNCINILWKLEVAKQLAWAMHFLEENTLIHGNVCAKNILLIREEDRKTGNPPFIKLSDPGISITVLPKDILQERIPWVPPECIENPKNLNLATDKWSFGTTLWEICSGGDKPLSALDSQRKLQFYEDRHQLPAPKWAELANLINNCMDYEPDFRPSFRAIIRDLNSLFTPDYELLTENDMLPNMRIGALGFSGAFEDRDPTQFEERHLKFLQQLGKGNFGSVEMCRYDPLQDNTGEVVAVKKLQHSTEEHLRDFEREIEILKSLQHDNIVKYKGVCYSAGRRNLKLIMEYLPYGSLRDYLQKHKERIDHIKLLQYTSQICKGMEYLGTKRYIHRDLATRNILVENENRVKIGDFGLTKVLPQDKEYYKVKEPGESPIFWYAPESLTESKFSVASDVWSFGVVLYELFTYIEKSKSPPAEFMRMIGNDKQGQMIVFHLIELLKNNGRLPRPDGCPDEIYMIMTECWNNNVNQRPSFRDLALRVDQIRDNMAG

As to `CC(C)c1cc(-c2n[nH]c(=O)n2-c2ccc3c(ccn3C)c2)c(O)cc1O` [Ganetespib (STA9090)], the remaining activity at 10 µM in assay [1] is 91.3%; in assay [2], 62.5%; in [3], 119%; in assay [4] it was 83.1%.

With `CC(C)c1cc(-c2n[nH]c(=O)n2-c2ccc3c(ccn3C)c2)c(O)cc1O` [Ganetespib], the remaining activity at 10 µM was determined as 7.4% in [5]; 99.8% in [6]; 60.7% in assay [7]; 28.8% in assay [8]; 97.7% in [9].

Regarding `CCNC(=O)c1noc(-c2cc(C(C)C)c(O)cc2O)c1-c1ccc(CN2CCOCC2)cc1` [Luminespib (AUY-922)], the “% Enzyme Activity (relative to DMSO controls)” value in [1] amounted to 107.14%; in [2], 72.56%; in assay [3], 104.66%; in assay [4] it was 91.38%. The remaining activity at 10 µM in assay [1] was 107%; in assay [2], 73%; in assay [3], 106%; in assay [4], 91.7%.

Regarding `CCNC(=O)c1noc(-c2cc(C(C)C)c(O)cc2O)c1-c1ccc(CN2CCOCC2)cc1` [Luminespib], the “% Enzyme Activity (relative to DMSO controls)” value was found to be 23.48% in assay [5]; 112.05% in [6]; 101.19% in assay [7]; 103.60% in assay [8]; 101.68% in [9]. Also, the remaining activity at 10 µM in assay [5] came to 24.2%; in assay [6], 113%; in assay [7] it was 102%; in [8], 106%; in assay [9] it was 103%.
